How the values were obtained:
caspase-3/7 = experiment: Enzymatic activity of caspases-3/7 in treated MDA-MB-231 cells; assay type: cell-based, human; settings: MDA-MB-231 cells treated at 10 μM
[1] = system: human metastatic breast cancer line, MDA-MB-231; settings: different experimental conditions; cited from earlier work

Row | Structure (SMILES) | potency relative to monomer M11 in caspase-3/7 activation (caspase-3/7) | in vivo activity profile compared with M11, in words [1]
1 | CN[C@@H](C)C(=O)N[C@@H](CSCc1ccc(-c2ccc(CSC[C@H](NC(=O)[C@H](C)NC)C(=O)N3CCC[C@H]3C(=O)NC(c3ccccc3)c3ccccc3)cc2)cc1)C(=O)N1CCC[C@H]1C(=O)NC(c1ccccc1)c1ccccc1 [Compound D13] | ~ 2.5 × | –
2 | CN[C@@H](C)C(=O)N[C@H]1CCCC[C@H]2CC[C@@H](C(=O)N[C@@H](c3ccccc3)c3cn(CCCCc4ccc(CCCCn5cc([C@@H](NC(=O)[C@@H]6CC[C@@H]7CCCC[C@H](NC(=O)[C@H](C)NC)C(=O)N76)c6ccccc6)nn5)cc4)nn3)N2C1=O [SM-164] | – | markedly improved activity profiles

— publication PMC4592835 (Bioorganic & medicinal chemistry letters, 2015)
